Test results from patent publication US11066421B1, “Synthetic cinchona alkaloids against cancer” (Ares Pharmaceuticals, LLC, priority 2021, dated 2021).

Key:
[1] = system: leukemia-initiating ALL xenograft cells; assay: Leukemia-initiating ALL xenograft cells treated in vitro and reinjected into NOD/SCID mice; format: in vivo, human; settings: for spleen leukemia burden (nucleated spleen cell count) / spleen size (mean±SE): NOD/SCID mice sacrificed at 85 days
Experimental: Patient derived xenograft mouse models have predictive value for clinical responses (Xu C, Li X, Liu P, Li M and Luo F: Patient-derived xenograft mouse models: A high fidelity tool for individualized medicine (Review). Oncol Lett 17: 3-10, 2019). Xenograft clones isolated from spleens of NOD/SCID mice that developed overt leukemia after inoculation with primary leukemia cells from a B-lineage ALL patient were treated for 24 hours at 37° C. with one of two concentrations of AP-5 (1 μM or 3 μM in phosphate buffered saline [PBS] with 2% DMSO) or vehicle (PBS with 2% DMSO) and then reinjected into NOD/SCID mice (Control group: 9 mice; AP-5 groups: 8 mice per concentration level). Mice were monitored for signs of leukemia, and all mice in a given experiment were sacrificed when any mouse developed morbidity. The animal research in mice was conducted according to approved local IACUC protocols. All animal care procedures conformed to the Guide for the Care and Use of Laboratory Animals (National Research Council, National Academy Press, Washington D.C., USA. Revised 1996). Leukemia cells isolated from deidentified patient specimens were used in the described experiments.
Eight of the 9 control mice challenged with vehicle-treated xenograft cells developed leukemia between 81 and 85 days. All remaining mice were also sacrificed at 85 days. The spleen size and spleen leukemia burden were compared using previously published procedures (F. M. Uckun et al., 2015, J Clin Invest. 125:1006-18). […] The nucleated spleen cell count in these leukemic mice ranged from 192×10^6 to 940×10^6 (median: 576×10^6). The mean±SE values for all 9 control mice was 3.2±0.2 cm for the spleen size and 536.39±94.45×10^6 cells for the spleen leukemia burden (FIG. 4). By comparison, the spleens of mice inoculated with xenograft cells treated with AP-5 at a concentration of 1 μM (mean±SE=1.5±0.1 cm) (P=0.0011) or 3 μM (mean±SE=1.5±0.0 cm) (P=0.0018) were much smaller and contained substantially fewer cells (1 μM group: 7.95±1.11×10^6 cells/P=0.0104; 3 μM group: 5.84±1.07×10^6 cells/P=0.00002). […] FIG. 4 illustrates that AP-5 abrogates the ability of leukemia-initiating ALL xenograft cells to cause leukemia in NOD/SCID mice. The depicted Whisker plots in FIG. 4 represent the median and values (Min to Max. all data points are shown) for spleen size (A), and spleen leukemia burden (B). Kruskall Wallis and Dunn's multiple comparisons test were used for comparing the results among different groups (p<0.05). Statistical significance between groups is shown by the depicted p-values.

[2] = system: U87 human GBM cells; assay: CB.17 SCID mouse xenograft model of human glioblastoma multiforme; format: in vivo; settings: 5 days per week for 4 weeks
Experimental: Cell Lines. Human brain tumor cell line U87 (ATCC HTB-14) was obtained from American Type Culture Collection (Rockville, Md.) and maintained as a continuous cell line in DMEM supplemented with 10% fetal calf serum (FCS), 4 mm glutamine, 100 units/ml penicillin G, and […] streptomycin sulfate. All of the tissue culture reagents were obtained from Life Technologies, Inc. Inc. (Gaithersburg, Md.).
Mice. Female CB.17 SCID mice were obtained from Taconic (Germantown, N.Y.) and housed in a specific-pathogen-free room located in a secure indoor facility with controlled temperature, humidity, and noise levels. Mice were housed in micro-isolator cages and fed with autoclaved rodent chow. Water was also autoclaved and supplemented with trimethoprim/sulfomethoxazol 3 days a week. The animal protocol used in this study was approved by the local Institutional Animal Care and Use Committee (IACUC), and all of the animal care procedures conformed to the Guide for the Care and Use of Laboratory Animals (National Research Council, National Academy Press, Washington D.C. 1996).
SCID Mouse Xenograft Model of Human Glioblastoma Multiforme (GBM). The predictive value of the mouse xenograft models for clinical effectiveness of anti-cancer drugs has been confirmed for several drugs (Richmond A, Su. Y. Mouse xenograft models vs GEM models for human cancer therapeutics. Dis Model Mech. 2008; 1(2-3):78-82. doi:10.1242/dmm.000976). CB.17 SCID mice (8 wk. old, female) were inoculated subcutaneously with 1×10^6 U87 human GBM cells (1×10^6/inoculum, volume: 200 μL) in the right hind leg, as described (R. K. Narla et al., 2001, Clin Cancer Res. 7:2124-33). Mice were treated daily with intraperitoneal injections of vehicle (50 μL DMSO) or AP-1 (125 μg˜5 mg/kg/day in 50 μL DMSO) according to a 5 days on 2 days off schedule for 4 consecutive weeks. Tumor growth was determined by the measurement of visible tumors with a caliper in three dimensions three days a week and expressed as tumor volume in cubic millimeters (mm^3). Tumor volumes were calculated using the formula for the volume of a prolate spheroid, V=4/3×3.14×length/2×width/2×depth/2.

[3] = xenograft cells treated 24 h with 1 μM
[4] = xenograft cells treated 24 h with 3 μM

| Molecule | ability of xenograft cells to initiate leukemia in NOD/SCID mice ([1]; low micromolar concentration (1 or 3 μM)) | spleen leukemia burden (nucleated spleen cell count) [1, 3] | spleen size (mean±SE) [1, 3] [cm] | spleen leukemia burden (nucleated spleen cell count) [1, 4] | spleen size (mean±SE) [1, 4] [cm] | tumor progression ([2]; 5 mg/kg/dose i.p. daily) | average tumor size ([2]; day 15, 5 mg/kg/day i.p.) [mm^3] | average tumor size ([2]; day 30, 5 mg/kg/day i.p.) [mm^3] | tumor size ([2]; day 44, 5 mg/kg/day i.p.) [mm^3] |
| --- | --- | --- | --- | --- | --- | --- | --- | --- | --- |
| 2,4,6-Tri (9-O-dihydrocinchoninyl)pyrimidine [AP-5] | capable of abrogating the ability of the putative leukemic stem cell subpopulation of BPL xenograft cells to initiate leukemia | 7.95±1.11 ×10^6 cells | 1.5±0.1 | 5.84±1.07 ×10^6 cells | 1.5±0.0 |  |  |  |  |
| C=CC1CN2CCC1CC2C(Oc1cc(OC(c2ccnc3ccccc23)C2CC3CCN2CC3C=C)nc(OC(c2ccnc3ccccc23)C2CC3CCN2CC3C=C)n1)c1ccnc2ccccc12 (stereo not drawn) [AP-1, 2,4,6-Tri(9-O-cinchoninyl)pyrimidine] |  |  |  |  |  | significantly slowed down the tumor progression | 4.1±1.1 | 37.8±16.2 | 956.0±291.3 |
